Measurements reported in patent US11076595B2, “1-(n,n-disubstituted carbamoyl) 4-(substituted sulfonyl)triazolin-5-one derivative, 4-(n,n-disubstituted carbamoyl) 1-(substituted sulfonyl)triazolin-5-one derivative, and herbicide containing said derivative as active ingredient” (HOKKO CHEMICAL INDUSTRY CO., LTD., priority 2017, dated 2021).

Assays:
Type in all cases: in vivo
Chenopodium album [1] = experiment: Test Example 14: herbicidal effect test by foliage treatment in upland field; details: 7 days after sowing, 120 g/10a, 14 days after treatment
Method in brief: (§1)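 Dose: 120 g a.i. per 10 are, sprayed in 100 L water per 10 are onto pots seven days post-sowing in alluvial soil. After 14 days, weed dry weight relative to untreated plots gave suppression rate (%); duplicate plots per concentration.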

crabgrass [2] = experiment: as above; details: 7 days after sowing, 120 g/10a, 14 days after treatment
Method in brief: as §1

Echinochloa crus-galli [3] = experiment: Test Example 11: herbicidal effect test by soil treatment in paddy field; details: 120 g/10a active ingredient, 14 days after treatment
Method in brief: (§2)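 Dry weight at day 14 relative to untreated controls gives the suppression rate; duplicate pots. Treatment: 120 g a.i./10 are into paddy water at sowing.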

Lindernia pyxidaria [4] = experiment: as above; details: 120 g/10a active ingredient, 14 days after treatment
Method in brief: as §2

Scirpus juncoides [5] = experiment: as above; details: 120 g/10a active ingredient, 14 days after treatment
Method in brief: as §2

Monochoria vaginalis [6] = experiment: as above; details: 120 g/10a active ingredient, 14 days after treatment
Method in brief: as §2

Echinochloa crus-galli [7] = experiment: Test Example 12: herbicidal effect test by treatment during growing period in paddy field; details: 120 g/10a; treatment seven days after sowing in flooded paddy pot; assessed 14 days after treatment
Method in brief: (§3)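 Water-diluted emulsifiable concentrate added dropwise to flooded pots (~3 cm water) 7 d after sowing; rate 120 g active ingredient per 10 are. Weeds grown from 30 seeds each in puddled paddy soil under greenhouse conditions. Dry-weight suppression rate relative to untreated plots determined 14 d after treatment, duplicates.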

Lindernia pyxidaria [8] = experiment: as above; details: 120 g/10a; treatment seven days after sowing in flooded paddy pot; assessed 14 days after treatment
Method in brief: as §3

Scirpus juncoides [9] = experiment: as above; details: 120 g/10a; treatment seven days after sowing in flooded paddy pot; assessed 14 days after treatment
Method in brief: as §3

Monochoria vaginalis [10] = experiment: as above; details: 120 g/10a; treatment seven days after sowing in flooded paddy pot; assessed 14 days after treatment
Method in brief: as §3

Amaranthus viridis [11] = experiment: Test Example 14: herbicidal effect test by foliage treatment in upland field; details: 7 days after sowing, 120 g/10a, 14 days after treatment
Method in brief: as §1

Echinochloa crus-galli [12] = experiment: as above; details: 7 days after sowing, 120 g/10a, 14 days after treatment
Method in brief: as §1

Amaranthus viridis [13] = experiment: Test Example 13: herbicidal effect test by soil treatment in upland field; details: 120 g/10a, 14 days after treatment
Method in brief: (§4)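 Soil-applied emulsifiable concentrate at 120 g active ingredient per 10 are, sprayed one day after seeding into alluvial soil pots. Dry-weight-based suppression scored at 14 days; two replications.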

Echinochloa crus-galli [14] = experiment: as above; details: 120 g/10a, 14 days after treatment
Method in brief: as §4

Chenopodium album [15] = experiment: as above; details: 120 g/10a, 14 days after treatment
Method in brief: as §4

crabgrass [16] = experiment: as above; details: 120 g/10a, 14 days after treatment
Method in brief: as §4

SMILES | herbicidal effect, Chenopodium album (Chenopodium album [1]) | herbicidal effect, Crabgrass (crabgrass [2]) | Weed suppression rate (%) Echinochloa crus-galli (Echinochloa crus-galli [3]) | Weed suppression rate (%) Lindemia pyxidaria (Lindernia pyxidaria [4]) | Weed suppression rate (%) Scirpus juncoides (Scirpus juncoides [5]) | Weed suppression rate (%) Monochoria vaginalis (Monochoria vaginalis [6]) | Weed suppression rate (%) Echinochloa crus-galli (Echinochloa crus-galli [7]) | Weed suppression rate (%) Lindemia pyxidaria (Lindernia pyxidaria [8]) | Weed suppression rate (%) Scirpus juncoides (Scirpus juncoides [9]) | Weed suppression rate (%) Monochoria vaginalis (Monochoria vaginalis [10]) | herbicidal effect, Amaranthus viridis (Amaranthus viridis [11]) | herbicidal effect, Echinochloa crus-galli (Echinochloa crus-galli [12]) | herbicidal effect, Amaranthus viridis (Amaranthus viridis [13]) | herbicidal effect, Echinochloa crus-galli (Echinochloa crus-galli [14]) | herbicidal effect, Chenopodium album (Chenopodium album [15]) | herbicidal effect, Crabgrass (crabgrass [16])
CC(C)N(C(=O)n1cnn(S(=O)(=O)C2CCCCC2)c1=O)c1ccc(F)cc1Cl [Compound 11-301] | 80% | 90% | 90% | 80% | 90% | 80% | 90% | 80% | 90% | 80% | 90% | 80% | 90% | 80% | 80% | 90%
CCN(CC)C(=O)n1cnn(S(=O)(=O)c2ccc(F)cc2)c1=O [Compound 11-463] | 0% | 60% | 90% | 50% | 40% | 50% | 90% | 80% | 80% | 80% | 40% | 70% | 80% | 90% | 100% | 90%
CC(C)N(C(=O)n1cnn(S(C)(=O)=O)c1=O)c1cccc(F)c1F [Compound 11-11] | 70% | 100% | 100% | 100% | 100% | 100% | 100% | 80% | 100% | 100% | 60% | 100% | 30% | 80% | 30% | 90%
CC(C)N(C(=O)n1cnn(S(=O)(=O)C(C)C)c1=O)c1ccc(F)c(F)c1F [Compound 11-62] | 90% | 100% | 100% | 100% | 100% | 90% | 100% | 80% | 100% | 100% | 100% | 100% | 100% | 70% | 60% | 70%
CC(C)CS(=O)(=O)n1ncn(C(=O)N(c2ccc(F)cc2F)C(C)C)c1=O [Compound 11-94] | 90% | 90% | 100% | 100% | 90% | 100% | 100% | 100% | 90% | 90% | 50% | 90% | 80% | 100% | 90% | 100%
CCc1ccc(S(=O)(=O)n2ncn(C(=O)N(c3ccc(F)cc3F)C(C)C)c2=O)cc1 [Compound 11-666] | 40% | 90% | 100% | 90% | 90% | 90% | 100% | 90% | 90% | 90% | 40% | 90% | 40% | 100% | 100% | 90%
Cc1ccc(S(=O)(=O)n2ncn(C(=O)N(c3ccccc3)C(C)C)c2=O)cc1 [Compound 11-626] | 90% | 90% | 100% | 90% | 90% | 70% | 90% | 80% | 90% | 80% | 60% | 40% | 50% | 90% | 70% | 90%
Cc1cc(C)c(S(=O)(=O)n2ncn(C(=O)N(c3ccc(F)cc3C)C(C)C)c2=O)c(C)c1 [Compound 11-876] | 30% | 100% | 100% | 100% | 100% | 100% | 100% | 100% | 100% | 100% | 30% | 90% | 70% | 100% | 100% | 100%
CC(C)N(C(=O)n1cnn(S(=O)(=O)c2c(F)cccc2F)c1=O)c1ccccc1 [Compound 11-762] | 60% | 90% | 90% | 90% | 40% | 90% | 80% | 60% | 80% | 90% | 70% | 90% | 60% | 80% | 60% | 90%
CC(C)N(C(=O)n1cnn(S(=O)(=O)C2CCCCC2)c1=O)c1ccccc1 [Compound 11-283] | 80% | 90% | 100% | 90% | 90% | 70% | 90% | 90% | 90% | 90% | 90% | 80% | 90% | 80% | 80% | 90%
